The source made the active and inactive calls. The calls are words filed in the database; no cut-off is given here.
Columns and labels:
ViBo [1] = test: Induction of apoptosis in human ViBo cells assessed as chromatin condensation by DAPI staining-based fluorescence microscopic analysis; format: functional, cell-based
Ca-Ski [2] = test: Induction of apoptosis in human CaSki cells assessed as chromatin condensation by DAPI staining-based fluorescence microscopic analysis; format: functional, cell-based
HeLa [3] = test: Induction of apoptosis in human HeLa cells assessed as chromatin condensation by DAPI staining-based fluorescence microscopic analysis; format: functional, cell-based
ViBo [4] = test: Induction of apoptosis in human ViBo cells assessed as effect on cell morphology; format: functional, cell-based
Ca-Ski [5] = test: Induction of apoptosis in human CaSki cells assessed as effect on cell morphology; format: functional, cell-based
HeLa [6] = test: Induction of apoptosis in human HeLa cells assessed as effect on cell morphology; format: functional, cell-based
PBMC = test: Immunosuppressive activity in PHA-stumulated CSFE labeled human enriched PBMC assessed as cell growth at IC50 after 72 hrs by flow cytometric analysis (reference value: 65.90%); format: functional
ViBo [7] = test: Induction of apoptosis in human ViBo cells assessed as DNA fragmentation at 10 to 18 uM after 24 hrs by TUNEL assay; format: functional, cell-based
Ca-Ski [8] = test: Induction of apoptosis in human CaSki cells assessed as DNA fragmentation at 10 to 18 uM after 24 hrs by TUNEL assay; format: functional, cell-based
HeLa [9] = test: Induction of apoptosis in human HeLa cells assessed as DNA fragmentation at 10 to 18 uM after 24 hrs by TUNEL assay; format: functional, cell-based
ViBo [10] = test: Induction of apoptosis in human ViBo cells assessed as caspase-3 activation at 10 to 18 uM after 15 mins by DAPI staining-based epifluorescence microscopic analysis; format: functional, cell-based
Ca-Ski [11] = test: Induction of apoptosis in human CaSki cells assessed as caspase-3 activation at 10 to 18 uM after 15 mins by DAPI staining-based epifluorescence microscopic analysis; format: functional, cell-based
HeLa [12] = test: Induction of apoptosis in human HeLa cells assessed as caspase-3 activation at 10 to 18 uM after 15 mins by DAPI staining-based epifluorescence microscopic analysis; format: functional, cell-based
[13] = Cell cycle arrest in human ViBo cells assessed as accumulation at sub-G1 phase at IC50 after 24 hrs by propidium iodide staining-based flow cytometric analysis relative to control; format: functional
[14] = Cell cycle arrest in human ViBo cells assessed as accumulation at G2/M phase at IC50 after 24 hrs by propidium iodide staining-based flow cytometric analysis relative to control; format: functional
[15] = Cell cycle arrest in human ViBo cells assessed as accumulation at S phase at IC50 after 24 hrs by propidium iodide staining-based flow cytometric analysis relative to control; format: functional
[16] = Cell cycle arrest in human ViBo cells assessed as accumulation at G1 phase at IC50 after 24 hrs by propidium iodide staining-based flow cytometric analysis relative to control; format: functional
[17] = Cell cycle arrest in human CaSki cells assessed as accumulation at sub-G1 phase at IC50 after 24 hrs by propidium iodide staining-based flow cytometric analysis relative to control; format: functional; settings: Ca-Ski
[18] = Cell cycle arrest in human CaSki cells assessed as accumulation at G2/M phase at IC50 after 24 hrs by propidium iodide staining-based flow cytometric analysis relative to control; format: functional; settings: Ca-Ski
[19] = Cell cycle arrest in human CaSki cells assessed as accumulation at S phase at IC50 after 24 hrs by propidium iodide staining-based flow cytometric analysis relative to control; format: functional; settings: Ca-Ski
[20] = Cell cycle arrest in human CaSki cells assessed as accumulation at G1 phase at IC50 after 24 hrs by propidium iodide staining-based flow cytometric analysis relative to control; format: functional; settings: Ca-Ski
HeLa [21] = test: Cell cycle arrest in human HeLa cells assessed as accumulation at sub-G1 phase at IC50 after 24 hrs by propidium iodide staining-based flow cytometric analysis relative to control; format: functional
HeLa [22] = test: Cell cycle arrest in human HeLa cells assessed as accumulation at G2/M phase at IC50 after 24 hrs by propidium iodide staining-based flow cytometric analysis relative to control; format: functional
HeLa [23] = test: Cell cycle arrest in human HeLa cells assessed as accumulation at S phase at IC50 after 24 hrs by propidium iodide staining-based flow cytometric analysis relative to control; format: functional
HeLa [24] = test: Cell cycle arrest in human HeLa cells assessed as accumulation at G1 phase at IC50 after 24 hrs by propidium iodide staining-based flow cytometric analysis (reference value: 62.51 +/- 3.76%); format: functional
[25] = Cytotoxicity against PHA-activated human lymphocytes at IC50 after 72 hrs by LDH release assay; format: cell-based; settings: lymphocyte
[26] = Cytotoxicity against human ViBo cells at IC50 after 24 hrs by LDH release assay relative to control; format: functional
[27] = Cytotoxicity against human CaSki cells at IC50 after 24 hrs by LDH release assay relative to control; format: functional, Ca-Ski
HeLa [28] = test: Cytotoxicity against human HeLa cells at IC50 after 24 hrs by LDH release assay relative to control; format: functional
[29] = (§1) Antiproliferative activity against human ViBo cells after 24 hrs by MTT assay; format: functional, cell-based
ViBo [30] = test: as §1; format: functional, cell-based
HeLa [31] = test: Antiproliferative activity against human HeLa cells after 24 hrs by MTT assay; format: functional, cell-based
[32] = (§2) Antiproliferative activity against human CaSki cells after 24 hrs by MTT assay; format: functional, cell-based; settings: Ca-Ski
Ca-Ski [33] = test: as §2; format: functional, cell-based
ViBo [34] = test: Induction of apoptosis in human ViBo cells assessed as DNA fragmentation at 95 to 97 uM after 24 hrs by TUNEL assay; format: functional, cell-based
Ca-Ski [35] = test: Induction of apoptosis in human CaSki cells assessed as DNA fragmentation at 95 to 97 uM after 24 hrs by TUNEL assay; format: functional, cell-based
HeLa [36] = test: Induction of apoptosis in human HeLa cells assessed as DNA fragmentation at 95 to 97 uM after 24 hrs by TUNEL assay; format: functional, cell-based
ViBo [37] = test: Induction of apoptosis in human ViBo cells assessed as caspase-3 activation at 95 to 97 uM after 15 mins by DAPI staining-based epifluorescence microscopic analysis; format: functional, cell-based
Ca-Ski [38] = test: Induction of apoptosis in human CaSki cells assessed as caspase-3 activation at 95 to 97 uM after 15 mins by DAPI staining-based epifluorescence microscopic analysis; format: functional, cell-based
HeLa [39] = test: Induction of apoptosis in human HeLa cells assessed as caspase-3 activation at 95 to 97 uM after 15 mins by DAPI staining-based epifluorescence microscopic analysis; format: functional, cell-based

Row | SMILES | Activity (ViBo [1]) | Activity (Ca-Ski [2]) | Activity (HeLa [3]) | Activity (ViBo [4]) | Activity (Ca-Ski [5]) | Activity (HeLa [6]) | Activity (PBMC) [%] | Activity [13] [%] | Activity [14] [%] | Activity [15] [%] | Activity [16] [%] | Activity [17] [%] | Activity [18] [%] | Activity [19] [%] | Activity [20] [%] | Activity (HeLa [21]) [%] | Activity (HeLa [22]) [%] | Activity (HeLa [23]) [%] | IC50 [29] [µM] | IC50 [32] [µM] | other results
1 | CC(=O)O[C@H]1CC[C@@]2(C)C(=CC[C@H]3[C@@H]4C[C@H](OC(C)=O)[C@H]([C@H](C)C(=O)CC[C@@H](C)C[Se]C#N)[C@@]4(C)CC[C@@H]32)C1 | Active | Active | Active | Active | Active | Active | 51.96 | 8.13 | 7.27 | 8.67 | 69.5 | 41.4 | 9.68 | 18.9 | 31.2 | 12.6 | 11.58 | 17.04 | 18 | 15 | Activity (ViBo [7]): Active; Activity (Ca-Ski [8]): Active; Activity (HeLa [9]): Active; Activity (ViBo [10]): Active; Activity (Ca-Ski [11]): Active; Activity (HeLa [12]): Active; Activity (HeLa [24]): 56.19%; Activity [25]: Non-toxic; Activity [26]: 45%; Activity [27]: 33%; Activity (HeLa [28]): 72%; Activity (ViBo [30]): Dose-dependent effect; Activity (HeLa [31]): Dose-dependent effect; IC50 (HeLa [31]): 10 µM; Activity (Ca-Ski [33]): Dose-dependent effect
2 | CC(=O)O[C@H]1CC[C@@]2(C)[C@@H](CC[C@@H]3[C@@H]2CC(=O)[C@]2(C)[C@@H]([C@H](C)C(=O)CC[C@@H](C)C[Se]C#N)[C@@H](OC(C)=O)C[C@@H]32)C1 | Active | Active | Active | Active | Active | Active | 25.28 | 10.8 | 5.8 | 16.2 | 59.3 | 8.2 | 13.2 | 19.4 | 49.2 | 4.74 | 10.9 | 18.54 | 97 | 97 | Activity (ViBo [34]): Active; Activity (Ca-Ski [35]): Active; Activity (HeLa [36]): Active; Activity (ViBo [37]): Active; Activity (Ca-Ski [38]): Active; Activity (HeLa [39]): Active; Activity (HeLa [24]): 64.04%; Activity [25]: Non-toxic; Activity [26]: 16%; Activity [27]: 0%; Activity (HeLa [28]): 27%; Activity (ViBo [30]): Dose-dependent effect; Activity (HeLa [31]): Dose-dependent effect; IC50 (HeLa [31]): 95 µM; Activity (Ca-Ski [33]): Dose-dependent effect
3 | CC(=O)O[C@H]1C(=O)[C@@]2(C)[C@H]([C@H](OC(=O)c3ccccc3)[C@]3(O)C[C@H](OC(=O)[C@H](O)[C@@H](NC(=O)c4ccccc4)c4ccccc4)C(C)=C1C3(C)C)[C@]1(OC(C)=O)CO[C@@H]1C[C@@H]2O [PACLITAXEL] | – | – | – | – | – | – | – | – | – | – | – | – | – | – | – | – | – | – | 1.6 | 2.9 | –

Reference: ChEMBL document CHEMBL3351703, “Probing the selective antitumor activity of 22-oxo-26-selenocyanocholestane derivatives” (Eur J Med Chem, 2014)
